The values that follow come from patent US7932384B2, “Reverse-turn mimetics and method relating thereto” (Choongwae Pharma Corporation, priority 2001, dated 2011).

In brackets after ≈: the same amount, converted by molar mass.

Tested on in the first data set: not listed separately
Kind of data set: physchem. The following applies: 37 °C, pH 1.2, simulated gastric fluid, thermodynamic from solid, Solubility JP1 (pH 1.2).
As for `CN1CC(=O)N2[C@@H](Cc3ccc(OP(=O)(O)O)cc3)C(=O)N(Cc3cccc4ccccc34)C[C@@H]2N1C(=O)NCc1ccccc1` [Compound 1], the solubility (commonly the concentration that dissolves in the medium under given conditions) was 60.1 µg/mL (≈ 93.4 µM).

Staying with this data set, now noted: 37 °C, pH 1.2, simulated gastric fluid, thermodynamic from solid, Solubility JP1 (pH 1.2), 0 hr.
As for `CN(C)c1cc(F)ccc1CN1C[C@H]2N(C(=O)CN(C)N2C(=O)NCc2ccccc2)[C@@H](Cc2ccc(OP(=O)(O)O)cc2)C1=O` [Compound 3], the concentration in solution (solubility) came to 1880 µg/mL (≈ 2870 µM).
Same read-out and setting: in the case of `CN1CC(=O)N2[C@@H](Cc3ccc(OP(=O)([O-])[O-])cc3)C(=O)N(Cc3ccc(F)cc3F)C[C@@H]2N1C(=O)NCc1ccccc1.[Na+].[Na+]` [Compound 4] it was 554 µg/mL; in that of `CN1CC(=O)N2[C@@H](Cc3ccc(OP(=O)(O)O)cc3)C(=O)N(Cc3cccc4cnn(C)c34)C[C@@H]2N1C(=O)NCc1ccccc1` [Compound 5], 406 µg/mL (≈ 627 µM); in that of `C=CCN1CC(=O)N2[C@@H](Cc3ccc(OP(=O)([O-])[O-])cc3)C(=O)N(Cc3cccc4cccnc34)C[C@@H]2N1C(=O)NCc1ccccc1.[Na+].[Na+]` [Compound 6], 1450 µg/mL.

The same data set, now with this note: 37 °C, pH 1.2, simulated gastric fluid, thermodynamic from solid, Solubility JP1 (pH 1.2), 2 hr.
On to `CN(C)c1cc(F)ccc1CN1C[C@H]2N(C(=O)CN(C)N2C(=O)NCc2ccccc2)[C@@H](Cc2ccc(OP(=O)(O)O)cc2)C1=O` [Compound 3], for which the solubility was 1970 µg/mL (≈ 3010 µM).
The same measure, in the same setting: the same measure for `CN1CC(=O)N2[C@@H](Cc3ccc(OP(=O)([O-])[O-])cc3)C(=O)N(Cc3ccc(F)cc3F)C[C@@H]2N1C(=O)NCc1ccccc1.[Na+].[Na+]` [Compound 4]: 646 µg/mL.
For the molecule `CN1CC(=O)N2[C@@H](Cc3ccc(OP(=O)(O)O)cc3)C(=O)N(Cc3cccc4cnn(C)c34)C[C@@H]2N1C(=O)NCc1ccccc1` [Compound 5], the solubility is 532 µg/mL (≈ 821 µM).
The same measure, in the same setting: the same measure for `C=CCN1CC(=O)N2[C@@H](Cc3ccc(OP(=O)([O-])[O-])cc3)C(=O)N(Cc3cccc4cccnc34)C[C@@H]2N1C(=O)NCc1ccccc1.[Na+].[Na+]` [Compound 6]: 1720 µg/mL.

Staying with this data set, now noted: 37 °C, pH 1.2, simulated gastric fluid, thermodynamic from solid, Solubility JP1 (pH 1.2), 20 hr.
Take `CN(C)c1cc(F)ccc1CN1C[C@H]2N(C(=O)CN(C)N2C(=O)NCc2ccccc2)[C@@H](Cc2ccc(OP(=O)(O)O)cc2)C1=O` [Compound 3]: the concentration in solution (solubility) was 2040 µg/mL (≈ 3110 µM).
Same read-out and setting: in the case of `CN1CC(=O)N2[C@@H](Cc3ccc(OP(=O)([O-])[O-])cc3)C(=O)N(Cc3ccc(F)cc3F)C[C@@H]2N1C(=O)NCc1ccccc1.[Na+].[Na+]` [Compound 4] it was 756 µg/mL; in that of `CN1CC(=O)N2[C@@H](Cc3ccc(OP(=O)(O)O)cc3)C(=O)N(Cc3cccc4cnn(C)c34)C[C@@H]2N1C(=O)NCc1ccccc1` [Compound 5], 684 µg/mL (≈ 1060 µM); in that of `C=CCN1CC(=O)N2[C@@H](Cc3ccc(OP(=O)([O-])[O-])cc3)C(=O)N(Cc3cccc4cccnc34)C[C@@H]2N1C(=O)NCc1ccccc1.[Na+].[Na+]` [Compound 6], 1790 µg/mL.

The data set is the same for the next values; noted with them: 37 °C, pH 6.8, fassgf or other biorelevant, thermodynamic from solid, Solubility JP2 (pH 6.8).
`CN1CC(=O)N2[C@@H](Cc3ccc(OP(=O)(O)O)cc3)C(=O)N(Cc3cccc4ccccc34)C[C@@H]2N1C(=O)NCc1ccccc1` [Compound 1] had a solubility of 1800 µg/mL (≈ 2790 µM).

Still in this data set, the particulars now being: 37 °C, pH 6.8, fassgf or other biorelevant, thermodynamic from solid, Solubility JP2 (pH 6.8), 0 hr.
As for `CN(C)c1cc(F)ccc1CN1C[C@H]2N(C(=O)CN(C)N2C(=O)NCc2ccccc2)[C@@H](Cc2ccc(OP(=O)(O)O)cc2)C1=O` [Compound 3], the solubility is 1320 µg/mL (≈ 2020 µM).
The same measure, in the same setting: in the case of `CN1CC(=O)N2[C@@H](Cc3ccc(OP(=O)([O-])[O-])cc3)C(=O)N(Cc3ccc(F)cc3F)C[C@@H]2N1C(=O)NCc1ccccc1.[Na+].[Na+]` [Compound 4] it was 1980 µg/mL; in that of `CN1CC(=O)N2[C@@H](Cc3ccc(OP(=O)(O)O)cc3)C(=O)N(Cc3cccc4cnn(C)c34)C[C@@H]2N1C(=O)NCc1ccccc1` [Compound 5], 1760 µg/mL (≈ 2720 µM).
Same read-out and setting: in the case of `C=CCN1CC(=O)N2[C@@H](Cc3ccc(OP(=O)([O-])[O-])cc3)C(=O)N(Cc3cccc4cccnc34)C[C@@H]2N1C(=O)NCc1ccccc1.[Na+].[Na+]` [Compound 6] it was 1830 µg/mL.

Staying with this data set, now noted: 37 °C, pH 6.8, fassgf or other biorelevant, thermodynamic from solid, Solubility JP2 (pH 6.8), 2 hr.
Regarding `CN(C)c1cc(F)ccc1CN1C[C@H]2N(C(=O)CN(C)N2C(=O)NCc2ccccc2)[C@@H](Cc2ccc(OP(=O)(O)O)cc2)C1=O` [Compound 3], the concentration in solution (solubility) was 1900 µg/mL (≈ 2910 µM).
The same measure, in the same setting: the same measure for `CN1CC(=O)N2[C@@H](Cc3ccc(OP(=O)([O-])[O-])cc3)C(=O)N(Cc3ccc(F)cc3F)C[C@@H]2N1C(=O)NCc1ccccc1.[Na+].[Na+]` [Compound 4]: 2010 µg/mL; for `CN1CC(=O)N2[C@@H](Cc3ccc(OP(=O)(O)O)cc3)C(=O)N(Cc3cccc4cnn(C)c34)C[C@@H]2N1C(=O)NCc1ccccc1` [Compound 5]: 1780 µg/mL (≈ 2750 µM).
Still for that read-out and setting: the same measure for `C=CCN1CC(=O)N2[C@@H](Cc3ccc(OP(=O)([O-])[O-])cc3)C(=O)N(Cc3cccc4cccnc34)C[C@@H]2N1C(=O)NCc1ccccc1.[Na+].[Na+]` [Compound 6]: 1860 µg/mL.

Still in this data set, the particulars now being: 37 °C, pH 6.8, fassgf or other biorelevant, thermodynamic from solid, Solubility JP2 (pH 6.8), 20 hr.
With `CN(C)c1cc(F)ccc1CN1C[C@H]2N(C(=O)CN(C)N2C(=O)NCc2ccccc2)[C@@H](Cc2ccc(OP(=O)(O)O)cc2)C1=O` [Compound 3], the solubility is 2000 µg/mL (≈ 3060 µM).
Same read-out and setting: in the case of `CN1CC(=O)N2[C@@H](Cc3ccc(OP(=O)([O-])[O-])cc3)C(=O)N(Cc3ccc(F)cc3F)C[C@@H]2N1C(=O)NCc1ccccc1.[Na+].[Na+]` [Compound 4] it was 2030 µg/mL; in that of `CN1CC(=O)N2[C@@H](Cc3ccc(OP(=O)(O)O)cc3)C(=O)N(Cc3cccc4cnn(C)c34)C[C@@H]2N1C(=O)NCc1ccccc1` [Compound 5], 1760 µg/mL (≈ 2710 µM).
For the molecule `C=CCN1CC(=O)N2[C@@H](Cc3ccc(OP(=O)([O-])[O-])cc3)C(=O)N(Cc3cccc4cccnc34)C[C@@H]2N1C(=O)NCc1ccccc1.[Na+].[Na+]` [Compound 6], the solubility worked out at 1870 µg/mL.

The test system of a further data set is TCF4/β-catenin transcriptional pathway. The experiment in a line: Reporter gene assay (TOPFlash luciferase) in SW480 cells. In kind it is cell-based. The following applies: Homo sapiens, SW480, Table 10, prodrug compounds, reporter gene assay TopFlash; read-out: RGA, TopF IC50. The protocol: SW480 cells were transfected with the usage of Superfect™ transfect reagent (Qiagen, 301307). Cells were trypsinized briefly 1 day before transfection and plated on 6 well plate (5×10^5 cells/well) so that they were 50-80% confluent on the day of transfection.
Four microgram (TOPFlash) and one microgram (pRL-null) of DNAs were diluted in 150 μl of serum-free medium, and 30 μl of Superfect™ transfect reagent was added. The DNA-Superfect mixture was incubated at room temperature for 15 min, and then, 1 ml of 10% FBS DMEM was added to this complex for an additional 3 hours of incubation. While complexes were forming, cells were washed with PBS twice without antibiotics.
The DNA-Superfect™ transfect reagent complexes were applied to the cells before incubating at 37° C. at 5% CO2 for 3 hours. After incubation, recovery medium with 10% FBS was added to bring the final volume to 1.18 ml. After 3 hours incubation, the cells were harvested and reseeded to 96 well plate (3×10^4 cells/well). After overnight incubation at 37° C. at 5% CO2, the cells were treated with Compound A for 24 hours. Finally, the activity was checked by means of luciferase assay (Promega, E1960).
A general note: Reporter assays use an easily measured gene product as a stand-in for the process of interest.
In the case of `CN1CC(=O)N2[C@@H](Cc3ccc(OP(=O)(O)O)cc3)C(=O)N(Cc3cccc4ccccc34)C[C@@H]2N1C(=O)NCc1ccccc1` [Compound 1], the IC50 (usually the point on the concentration scale where inhibition reaches its midpoint) was determined as 4.2 µM.

The subject of the next data set is SW480 cells. The experiment in a line: Growth inhibition assay (MTS or sulforhodamine B), SW480. In kind it is cell-based. The following applies: Homo sapiens, SW480, Table 10, prodrug compounds, SW480; read-out: MTS, SW480 (uM) GI50.
With `CN1CC(=O)N2[C@@H](Cc3ccc(OP(=O)(O)O)cc3)C(=O)N(Cc3cccc4ccccc34)C[C@@H]2N1C(=O)NCc1ccccc1` [Compound 1], the GI50 (usually the concentration at which growth is held to half of that of the control) was 2 µM.

A further data set concerns survivin promoter. The experiment in a line: Survivin luciferase reporter in SW480 cells. In kind it is cell-based. The following applies: Homo sapiens, SW480, read-out: RGA, Survivin IC50, uM, Table 10, prodrug compounds, reporter gene assay survivin.
Regarding `CN1CC(=O)N2[C@@H](Cc3ccc(OP(=O)(O)O)cc3)C(=O)N(Cc3cccc4ccccc34)C[C@@H]2N1C(=O)NCc1ccccc1` [Compound 1], the half-maximal inhibitory concentration (IC50) was determined as 6.4 µM.
